# Measurements reported in patent US8623859B2, “Bradykinin B1 antagonists” (Evotec AG, priority 2008, dated 2014).
# Where a name gives a salt, the structure may show the parent alone.
# Target: T1, human B1 (Homo sapiens, UniProt P46663)
# T1 construct: host or cells: CHO-K1
# T1 sequence (P46663 1-353): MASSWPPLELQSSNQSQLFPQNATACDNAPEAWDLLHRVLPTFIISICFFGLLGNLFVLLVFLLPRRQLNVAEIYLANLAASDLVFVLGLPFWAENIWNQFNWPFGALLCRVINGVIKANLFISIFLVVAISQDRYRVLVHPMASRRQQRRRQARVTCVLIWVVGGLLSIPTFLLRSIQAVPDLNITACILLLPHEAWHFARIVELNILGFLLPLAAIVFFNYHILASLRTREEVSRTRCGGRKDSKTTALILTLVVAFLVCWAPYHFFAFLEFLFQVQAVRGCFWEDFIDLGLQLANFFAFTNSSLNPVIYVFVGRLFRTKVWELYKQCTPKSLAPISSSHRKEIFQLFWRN
# Experiment: Calcium flux assay for Bradykinin B1 antagonist, CHO-K1 cell line expressing human B1
# Assay type: cell-based
# Conditions: CHO-K1 cells expressing human B1, agonist Lys-(Des-Arg)-Bradykinin, read-out: Potency (IC50 value against human B1)
# Procedure, shortened: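 CHO-K1 cells expressing human B1, loaded with 5 μM Fluo-4AM (2 h, 37° C) in HEPES buffer pH 7.4 with probenecid and 0.1% BSA, were preincubated 30 min at 25° C with compound (8 concentrations, triplicate, 1% DMSO) before B1 agonist addition. Ca2+ fluorescence monitored at 538 nm; background-normalized integrated values plotted against log antagonist concentration.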
row,SMILES,IC50
1,"COc1cc(C)c(S(=O)(=O)N(Cc2cc(C(=O)N3CCN(CC(=O)Nc4cccnc4)CC3)co2)C2CC2)c(C)c1 [Ex 117, 2-(4-{[5-({Cyclopropyl[(4-methoxy-2,6-dimethylphenyl)sulfonyl]amino}methyl)furan-3-yl]carbonyl}piperazin-1-yl)-N-pyridin-3-ylacetamide trifluoroacetate]",100 to 1000 nM
2,"COc1cc(C)c(S(=O)(=O)N(C)Cc2cc(C(=O)NCCc3ccc(Nc4cccc[n+]4C)cc3)co2)c(C)c1 [Ex 13, 2-({4-[2-({[5-({[(4-methoxy-2,6-dimethylphenyl)sulfonyl](methyl)amino}methyl)furan-3-yl]carbonyl}amino)ethyl]phenyl}amino)-1-methylpyridinium iodide]",< 10 nM
3,"COc1cc(C)c(S(=O)(=O)N(Cc2nc(C(=O)N(C)Cc3ccc(CN4CCC(O)CC4)cc3)co2)C2CC2)c(C)c1 [Ex 181, 2-({Cyclopropyl[(4-methoxy-2,6-dimethylphenyl)sulfonyl]amino}methyl)-N-{4-[(4-hydroxypiperidin-1-yl)methyl]benzyl}-N-methyl-1,3-oxazole-4-carboxamide]",< 10 nM
4,"COc1cc(C)c(S(=O)(=O)N(C)Cc2cc(C(=O)N(C)Cc3nnc(CN4CCCC4)s3)co2)c(C)c1 [Ex 137, 5-({[(4-Methoxy-2,6-dimethylphenyl)sulfonyl](methyl)amino}methyl)-N-methyl-N-{[5-(pyrrolidin-1-ylmethyl)-1,3,4-thiadiazol-2-yl]methyl}furan-3-carboxamide]",100 to 1000 nM
5,"COc1cc(C)c(S(=O)(=O)N(C)Cc2cc(C(=O)NCc3cc(F)cc(CN4CCCC4)c3)co2)c(C)c1 [Ex 155, N-[3-Fluoro-5-(pyrrolidin-1-ylmethyl)benzyl]-5-({[(4-methoxy-2,6-dimethylphenyl)sulfonyl](methyl)amino}methyl)furan-3-carboxamide trifluoroacetate]",10 to 100 nM
6,"COc1cc(C)c(S(=O)(=O)N(Cc2nnc(C(=O)N3CCN(CCN4CCCC4)CC3)o2)C2CC2)c(C)c1 [Ex 277, N-Cyclopropyl-4-methoxy-2,6-dimethyl-N-[(5-{[4-(2-pyrrolidin-1-ylethyl)piperazin-1-yl]carbonyl}-1,3,4-oxadiazol-2-yl)methyl]benzenesulfonamide]",10 to 100 nM

# Further lines, results first:
row,IC50,SMILES
1,100 to 1000 nM,"COc1cc(C)c(S(=O)(=O)N(C)Cc2nnc(C(=O)N3CCN(Cc4ccc(C(F)(F)F)nc4)CC3)o2)c(C)c1 [Ex 262, 4-Methoxy-N,2,6-trimethyl-N-({5-[(4-{[6-(trifluoromethyl)pyridin-3-yl]methyl}piperazin-1-yl)carbonyl]-1,3,4-oxadiazol-2-yl}methyl)benzenesulfonamide trifluoroacetate]"
2,< 10 nM,"COc1cc(C)c(S(=O)(=O)N(Cc2noc(C(=O)N(C)Cc3ccc(CN4CCCC4)cc3)n2)C2CC2)c(C)c1 [Ex 306, 3-({Cyclopropyl[(4-methoxy-2,6-dimethylphenyl)sulfonyl]amino}methyl)-N-methyl-N-[4-(pyrrolidin-1-ylmethyl)benzyl]-1,2,4-oxadiazole-5-carboxamide trifluoroacetate]"
3,< 10 nM,"COc1cc(C)c(S(=O)(=O)N(Cc2nc(C(=O)N(C)Cc3ccc(CN4CCCC4)cc3)co2)C2CC2)c(C)c1 [Ex 75, 2-({Cyclopropyl[(4-methoxy-2,6-dimethylphenyl)sulfonyl]amino}methyl)-N-methyl-N-[4-(pyrrolidin-1-ylmethyl)benzyl]-1,3-oxazole-4-carboxamide]"
4,100 to 1000 nM,"COc1cc(C)c(S(=O)(=O)N(C)Cc2cc(C(=O)N3CCN(C4CCN(C)CC4)CC3)no2)c(C)c1 [Ex 65, 4-Methoxy-N,2,6-trimethyl-N-[(3-{[4-(1-methylpiperidin-4-yl)piperazin-1-yl]carbonyl}isoxazol-5-yl)methyl]benzenesulfonamide]"
5,< 10 nM,"COc1cc(C)c(S(=O)(=O)N(C)Cc2nc(C(=O)N3CCN(CCCN4CCCC4)CC3)co2)c(C)c1 [Ex 174, 4-Methoxy-N,2,6-trimethyl-N-[(4-{[4-(3-pyrrolidin-1-ylpropyl)piperazin-1-yl]carbonyl}-1,3-oxazol-2-yl)methyl]benzenesulfonamide]"
